Experimental findings from patent publication US5981544A, “Mono-- or diketone tetracyclic derivatives and therapeutical uses thereof” (Laboratoire Innothera, priority 1995, dated 1999) are described below.

The test system of data set [1] is saphenous vein of rabbits. The data set is described as follows: Contractile effect on rabbit saphenous vein rings precontracted by depolarizing physiological solution (40 mM potassium). Also on record: species or system rabbit (New Zealand). The following applies: Oryctolagus cuniculus, precontracted at 40 mM potassium; for Emax: % of maximum contraction induced by depolarizing hyperpotassic solution, read-out: Emax (% of maximum contr.); for EC50: read-out: ED50 (the source's name). How it is done: For the in vitro studies, the compounds are made soluble in a pure aqueous solution or a solution containing DMSO (dimethyl sulfoxide).
Contractile effects are measured, in vitro and under static conditions, on capacitance or resistance vascular rings of the saphenous, femoral, jugular, mesenteric, and caval veins; and on the femoral, carotid, basilar, mesenteric, and thoracic or abdominal aortic arteries, in rats (Wistar, 200 to 250 g), rabbits (New Zealand, 2 to 2.5 kg), and guinea pigs (Dunkin Hartley, 250 to 300 g).
The rings are placed in an isolated organ chamber (25 mL for capacitance vessels and 2.5 mL for resistance vessels, as per Mulvany), kept in isometric conditions by two stiff cables inserted into the interior of the vessel, avoiding any damage to the endothelium. The vessels are washed in a modified Krebbs solution (in mM: NaCl=118; KCl=4.6; ClCl2 =2.5; MgSO4 =1.2; KH2 PO4 =1.17; NcHCO3 =25; glucose=11), permanently aerated by a gaseous mixture at 95% O2 and 5% CO2, at pH=7.4 and set thermostatically at 37° C. The rings are taken to their optimal point of the tension-length ratio.
The tensions developed generate an electrical signal through a strength sensor (Wheatstone bridge). […] The pharmacological studies are carried out after some preliminary contractile stimulations standardized by a depolarizing solution (hyperpotassic solution obtained by replacing NaCl by KCl in equimolar quantities), rinses, and balancing periods in pure physiological solution. Presence of the endothelium is verified by the relaxation induced by increasing concentrations of acetylcholine after stabilization of a vascular precontraction.
The contraction forces developed by the vascular rings in response to the different compounds are studied on quiescent or electrically stimulated (5-8 Hz) vessels, using a hyperpotassic depolarizing physiological solution (KCl: 20, 40 mM), using noradrenaline (increasing concentrations), or using serotonin (increasing concentrations).
The contractions are expressed in mg of force or as a percentage of maximum contraction at depolarization by a hyperpotassic physiological solution.
The compounds of the invention and their derived salts selectively increase, in the majority of cases, the contraction of animal veins produced by noradrenaline, by electrical stimulation, or by a depolarizing hyperpotassic solution. By way of example, there is the contractile effect of different compounds on the saphenous vein of rabbits, precontracted by a depolarizing physiological solution with a potassium concentration equal to 40 mM; the maximum effect produced by each compound is expressed as the percentage of maximum contraction induced by the depolarizing hyperpotassic solutions and in ED50 values: […]

For data set [2], the system named is inflammatory hyperpermeability induced by zymosan in rats. The data set is described as follows: Effects on capillary hyperpermeability induced by zymosan in rats (Evans Blue albumin extravasation). It is filed as in vivo, rat (Wistar). The following applies: rat, oral. As for the experimental part: (§1) As for the in vivo studies, they are administered intravenously or intraperitoneally in the form of an aqueous solution with or without DMSO, or orally in a 1% carboxymethylcellulose suspension, administered with the use of a force-feed probe at a volume of 10 mL/kg.
Effects on induced capillary hyperpermeability
Vascular permeability is studied in vivo by measuring albumin extravasation, the quantity of which is determined by a coloring agent bonded to the albumin (Evans Blue). Hyperpermeability is induced by the intradermal injection of a histamine, bradykinin, or zymosan solution.
The technique is derived from that described by Beach and Steinetz, Journal of Pharmacology and Experimental Therapy, 131: 400-406, 1961.
The rats (Wistars, 200 to 230 g) are shaved on the abdominal wall 1 h before the start of the experiment. The product to be tested is injected i.p. or orally 1-4 h prior to sacrificing. The rats are anesthetized using a halothane mixture. They then receive an intradermal injection in the abdomen of 0.10 to 0.15 mL of an inflammatory agent (by histamine 6.7 or 10 μg) and an i.v. injection of 1 mL of Evans blue 0.5% solution in the vein of the penis. These injections are carried out 30 min prior to sacrificing.
30 min after these two injections, the rats are sacrificed by cervical dislocation.
At the locus of injection of the inflammatory agent, the skin is cut off and placed in ground-neck glass tubes containing 3 mL of fuming hydrochloric acid. Digestion of the skin is carried out by contact [with HCl] of at least 1 h in a double boiler at 37° C.; 3 mL of benzalkonium chloride at 12.8% are then added. After leaving undisturbed for 30 min, 7 mL of dichloromethane are added. The tubes are periodically agitated for 1 h. The aqueous phase is eliminated by aspiration and the organic dichloromethane phase is filtered. The optical densities are quantified by absorption spectrophotometry at a 620 nm wavelength, against a blank [control] containing only dichloromethane.
The averages for optical density of the different lots of experimental and control animals are calculated, then the variation between the data for the experimental animals and those for the control animals is calculated.
By way of illustration, the oral administration of certain compounds of the invention and their derived salts reduce inflammatory hyperpermeability induced by zymosan in rats in doses generally between 0.01 and 5 mg/kg: […]

Data set [3] has as its system mice. The data set is described as follows: Acute oral toxicity in mice. It is filed as in vivo. As to conditions: single oral administration, 1 g/kg. From the text:
Furthermore, the compounds of the invention and their derived salts have a very low toxicity.

The test system of data set [4] is capillary resistance in rats. The data set is described as follows: Effects on capillary resistance (petechial index, negative pressure) after oral administration in rats. As to conditions: rat. It is filed as in vivo, rat (male Wistar). How it is done:
as §1
Effects on capillary resistance:
The increase in capillary resistance is detected by the change in the petechial index (negative pressure inducing the extravasation of erythrocytes), measured by a method derived from Parrot's angiosterrometer.
The study is carried out on male Wistar rats weighing an average of 200 g (aged approximately 6 weeks). The lower back area is shaved, then depilated with the use of a paste based on a by-product of thioglycolic acid and calcium hydroxide. After approximately 30 min, the skin is rinsed abundantly and dried.
On the day of the study, the rats are kept nonconstrained. A low pressure of 80 mm of mercury is applied.
The minimum low pressure at which the petechiae appear expressed in mm of mercury, the value of the base capillary resistance (before any treatment). Two measurements are carried out for each trial on different places on the back. The rats are treated orally. After a predetermined amount of time (generally 2, 4, or 6 h) after the treatment, the test is renewed on different areas of skin, until petechiae appear, yielding a new low pressure index. All measurements are carried out in the blind mode.
The variation between the means of the base capillary resistance and post-treatment capillary resistance is calculated for the experimental animals, for each treatment time and compared to the control group (excipient only) or the reference group.
By way of example, the oral administration of certain compounds of the invention and their derived salts increases the capillary resistance in rats at doses generally between 0.01 and 5 mg/kg: […]

Each structure is given as a SMILES string. Several values for one entry are separate records, joined by “and”; a condition that tells them apart may be missing. Equal values may be shown once.

Take `Cc1ccc2nc3c(n2c1)C(=O)C(=O)c1ccccc1-3` [Example 1, 5,6-Dihydro-5,6-dioxo-9-methyl-naphtho[1',2':4,5]-imidazo[1,2-a]pyridine]: in data set [1], the Emax is 20 ± 4% and the EC50 turned out to be 170 nM.
Consider `O=C1C(=O)c2c(nc3ccccn23)-c2ccccc21` [Example a, 5,6-Dihydro-5,6-dioxo-naphtho[1',2':4,5]imidazo[1,2-a] pyridine], for which, in data set [1], the Emax turned out to be 32 ± 7% and the EC50 was determined as 306 nM. Also, in data set [2] (5 mg/kg), the “Effect at 2 hours (hyperpermeability induced by zymosan)” value (shortened to “Effect at 2 hours”) is given as -1 % of control and the “Effect at 4 hours (hyperpermeability induced by zymosan)” value is -28 % of control. In data set [3], the mortality result is “no mortality was observable” and the toxic effect entry is on record as “no toxic effect was observable”.
Turning to `Cc1cccn2c3c(nc12)-c1ccccc1C(=O)C3=O` [Example 3, 5,6-Dihydro-5,6-dioxo-11-methyl-naphtho[1',2':4,5]-imidazo[1,2-a] pyridine], in data set [1], the Emax was determined as 18 ± 4% and the EC50 worked out at 200 nM. For the same compound, in data set [2] (5 mg/kg), the “Effect at 2 hours” value is recorded as -13 % of control and the “Effect at 4 hours (hyperpermeability induced by zymosan)” value is reported as -12 % of control.
On to `O=C1C(=O)c2c(nc3ncccn23)-c2ccccc21` [Example f], for which, in data set [1], the Emax worked out at 56 ± 7% and the EC50 was 450 nM.
With `O=C1C(=O)c2c(nc3ccc(Cl)cn23)-c2ccccc21` [Example c, 9-Chloro-5,6-dihydro-5,6-dioxo-naphtho[1',2':4,5]-imidazo[1,2-a]pyridine], in data set [1], the Emax was found to be 27 ± 4% and the EC50 was determined as 157 nM. Moreover, the “Effect at 6 hours (capillary resistance)” value in data set [4] (0.1 mg/kg) was 29 % of control and 17 % of control. Moreover, in data set [4] (5 mg/kg), the “Effect at 4 hours (capillary resistance)” value was 17 % of control and the “Effect at 6 hours (capillary resistance)” value is given as 10 % of control. In data set [2] (0.1 mg/kg), the “Effect at 2 hours” value is on record as -14 % of control and the “Effect at 4 hours (hyperpermeability induced by zymosan)” value is recorded as -11 % of control. In data set [3], the mortality result is “no mortality was observable” and the toxic effect result was “no toxic effect was observable”.
Turning to `O=C1c2ncccc2C(=O)c2c1nc1ccccn21` [Example h, 6,11-Dihydro-6,11-dioxo-pyrido[1',2':1,2]-imidazo[5,4-g]quinoline], in data set [1], the Emax is 18 ± 3% and the EC50 was determined as 67 nM. For the same compound, in data set [4] (0.1 mg/kg), the “Effect at 4 hours (capillary resistance)” value is listed as 19 % of control and the “Effect at 6 hours (capillary resistance)” value is given as 13 % of control. In data set [2] (0.1 mg/kg), the “Effect at 2 hours” value is listed as -23 % of control and the “Effect at 4 hours (hyperpermeability induced by zymosan)” value was -5 % of control.
`O=C1C(=O)c2c(nc3cc(Cl)ccn23)-c2ccccc21` [Example 12, 10-Chloro-5,6-dihydro-5,6-dioxo-naphtho[1',2':4,5]-imidazo[1,2-a] pyridine]: in data set [1], the maximal response (Emax) is 13 ± 3% and the EC50 was found to be 58 nM.
For the compound `Cc1ccn2c3c(nc2c1)-c1ccccc1C(=O)C3=O` [Example 2, 5,6-Dihydro-5,6-dioxo-10-methyl-naphtho[1',2':4,5]-imidazo[1,2-a] pyridine], in data set [1], the maximal effect (Emax) turned out to be 28 ± 4% and the EC50 was 271 nM. In data set [4] (5 mg/kg), the “Effect at 4 hours (capillary resistance)” value is 11 % of control and the “Effect at 6 hours (capillary resistance)” value is recorded as 13 % of control. Also, in data set [2] (0.1 mg/kg), the “Effect at 2 hours” value is -10 % of control and the “Effect at 4 hours (hyperpermeability induced by zymosan)” value is recorded as -15 % of control. Moreover, in data set [3], the mortality entry is “no mortality was observable” and the toxic effect result is recorded as “no toxic effect was observable”.

By Emax is commonly meant the greatest response seen or fitted, relative to the assay's reference.
